# Assay results reported in PMC11968843, “Sulphostin-inspired N-phosphonopiperidones as selective covalent DPP8 and DPP9 inhibitors” (Nature Communications, 2025).
# Assays:
# Experiment in all cases: Competitive ABPP / direct target identification with alkyne probe 9 in HEK293 cell lysates
# Type in all cases: binding, H. sapiens
# [1] = target: T1, HEK293 cell lysates (proteome-wide targets of probe 9) (Homo sapiens, UniProt P08865); settings: protein RPSA
# T1 construct: endogenous in cells; host or cells: HEK293 cell lysate
# [2] = target: T2, HEK293 cell lysates (proteome-wide targets of probe 9) (Homo sapiens, UniProt P40926); settings: protein MDH2
# T2 construct: endogenous in cells; host or cells: HEK293 cell lysate
# [3] = target: T3, HEK293 cell lysates (proteome-wide targets of probe 9) (Homo sapiens, UniProt P10809); settings: protein HSPD1
# T3 construct: endogenous in cells; host or cells: HEK293 cell lysate
# [4] = target: T4, HEK293 cell lysates (proteome-wide targets of probe 9) (Homo sapiens, UniProt P68363); settings: protein TUBA1B
# T4 construct: endogenous in cells; host or cells: HEK293 cell lysate
# [5] = target: T5, HEK293 cell lysates (proteome-wide targets of probe 9) (Homo sapiens, UniProt P07437); settings: protein TUBB
# T5 construct: endogenous in cells; host or cells: HEK293 cell lysate
# [6] = target: T6, HEK293 cell lysates (proteome-wide targets of probe 9) (Homo sapiens, UniProt P07195); settings: protein LDHB
# T6 construct: endogenous in cells; host or cells: HEK293 cell lysate
# [7] = target: T7, HEK293 cell lysates (proteome-wide targets of probe 9) (Homo sapiens, UniProt P78371); settings: protein CCT2
# T7 construct: endogenous in cells; host or cells: HEK293 cell lysate
# [8] = target: T8, HEK293 cell lysates (proteome-wide targets of probe 9) (Homo sapiens, UniProt P19338); settings: protein NCL
# T8 construct: endogenous in cells; host or cells: HEK293 cell lysate
# [9] = target: T9, HEK293 cell lysates (proteome-wide targets of probe 9) (Homo sapiens, UniProt P08758); settings: protein ANXA5
# T9 construct: endogenous in cells; host or cells: HEK293 cell lysate
# [10] = target: T10, HEK293 cell lysates (proteome-wide targets of probe 9) (Homo sapiens, UniProt P11142); settings: protein HSPA8
# T10 construct: endogenous in cells; host or cells: HEK293 cell lysate
# [11] = target: T11, HEK293 cell lysates (proteome-wide targets of probe 9) (Homo sapiens, UniProt P09211); settings: protein GSTP1
# T11 construct: endogenous in cells; host or cells: HEK293 cell lysate
# [12] = target: T12, HEK293 cell lysates (proteome-wide targets of probe 9) (Homo sapiens, UniProt P14174); settings: protein MIF
# T12 construct: endogenous in cells; host or cells: HEK293 cell lysate
# [13] = target: T13, HEK293 cell lysates (proteome-wide targets of probe 9) (Homo sapiens, UniProt P36578); settings: protein RPL4
# T13 construct: endogenous in cells; host or cells: HEK293 cell lysate
# [14] = target: T14, HEK293 cell lysates (proteome-wide targets of probe 9) (Homo sapiens, UniProt P30041); settings: protein PRDX6
# T14 construct: endogenous in cells; host or cells: HEK293 cell lysate
# [15] = target: T15, HEK293 cell lysates (proteome-wide targets of probe 9) (Homo sapiens, UniProt P52292); settings: protein KPNA2
# T15 construct: endogenous in cells; host or cells: HEK293 cell lysate
# [16] = target: T16, HEK293 cell lysates (proteome-wide targets of probe 9) (Homo sapiens, UniProt P11586); settings: protein MTHFD1
# T16 construct: endogenous in cells; host or cells: HEK293 cell lysate
# [17] = target: T17, HEK293 cell lysates (proteome-wide targets of probe 9) (Homo sapiens, UniProt P49368); settings: protein CCT3
# T17 construct: endogenous in cells; host or cells: HEK293 cell lysate
# [18] = target: T18, HEK293 cell lysates (proteome-wide targets of probe 9) (Homo sapiens, UniProt P46781); settings: protein RPS9
# T18 construct: endogenous in cells; host or cells: HEK293 cell lysate
# [19] = target: T19, HEK293 cell lysates (proteome-wide targets of probe 9) (Homo sapiens, UniProt O00295); settings: protein TULP2
# T19 construct: endogenous in cells; host or cells: HEK293 cell lysate
# [20] = target: T20, HEK293 cell lysates (proteome-wide targets of probe 9) (Homo sapiens, UniProt Q15366); settings: protein PCBP2
# T20 construct: endogenous in cells; host or cells: HEK293 cell lysate
# [21] = target: T21, HEK293 cell lysates (proteome-wide targets of probe 9) (Homo sapiens, UniProt P09651); settings: protein HNRNPA1
# T21 construct: endogenous in cells; host or cells: HEK293 cell lysate
# [22] = target: T22, HEK293 cell lysates (proteome-wide targets of probe 9) (Homo sapiens, UniProt P29401); settings: protein TKT
# T22 construct: endogenous in cells; host or cells: HEK293 cell lysate
# [23] = target: T23, HEK293 cell lysates (proteome-wide targets of probe 9) (Homo sapiens, UniProt P26373); settings: protein RPL13
# T23 construct: endogenous in cells; host or cells: HEK293 cell lysate
# [24] = target: T24, HEK293 cell lysates (proteome-wide targets of probe 9) (Homo sapiens, UniProt Q13085); settings: protein ACACA
# T24 construct: endogenous in cells; host or cells: HEK293 cell lysate
# [25] = target: T25, HEK293 cell lysates (proteome-wide targets of probe 9) (Homo sapiens, UniProt P14923); settings: protein JUP
# T25 construct: endogenous in cells; host or cells: HEK293 cell lysate
# [26] = target: T26, HEK293 cell lysates (proteome-wide targets of probe 9) (Homo sapiens, UniProt P11021); settings: protein HSPA5
# T26 construct: endogenous in cells; host or cells: HEK293 cell lysate
# [27] = target: T27, HEK293 cell lysates (proteome-wide targets of probe 9) (Homo sapiens, UniProt P06733); settings: protein ENO1
# T27 construct: endogenous in cells; host or cells: HEK293 cell lysate
# [28] = target: T28, HEK293 cell lysates (proteome-wide targets of probe 9) (Homo sapiens, UniProt P07900); settings: protein HSP90AA1
# T28 construct: endogenous in cells; host or cells: HEK293 cell lysate
# [29] = target: T29, HEK293 cell lysates (proteome-wide targets of probe 9) (Homo sapiens, UniProt P05165); settings: protein PCCA
# T29 construct: endogenous in cells; host or cells: HEK293 cell lysate
# [30] = target: T30, HEK293 cell lysates (proteome-wide targets of probe 9) (Homo sapiens, UniProt P04406); settings: protein GAPDH
# T30 construct: endogenous in cells; host or cells: HEK293 cell lysate
# [31] = target: T31, HEK293 cell lysates (proteome-wide targets of probe 9) (Homo sapiens, UniProt P63261); settings: protein ACTG1
# T31 construct: endogenous in cells; host or cells: HEK293 cell lysate
# [32] = target: T32, HEK293 cell lysates (proteome-wide targets of probe 9) (Homo sapiens, UniProt Q04837); settings: protein SSBP1
# T32 construct: endogenous in cells; host or cells: HEK293 cell lysate
compound,measurement,setting,value
C#CCCCP(=O)(OCC)N1CCCC(N)C1=O.O=C(O)C(F)(F)F (mixture of isomers) [Compound 9],Log2-fold change (9/DMSO),[1],1.5735
same,Log2-fold change (9/DMSO),[2],0.889
same,Log2-fold change (9/DMSO),[3],-1.284
same,Log2-fold change (9/DMSO),[4],0.8793
same,Log2-fold change (9/DMSO),[5],1.741
same,Log2-fold change (9/DMSO),[6],0.03494
same,Log2-fold change (9/DMSO),[7],1.1495
same,Log2-fold change (9/DMSO),[8],1.258
same,Log2-fold change (9/DMSO),[9],-0.9261
same,Log2-fold change (9/DMSO),[10],0.1798
same,Log2-fold change (9/DMSO),[11],1.848
same,Log2-fold change (9/DMSO),[12],2.233
same,Log2-fold change (9/DMSO),[13],-0.3595
same,Log2-fold change (9/DMSO),[14],0.7412
same,Log2-fold change (9/DMSO),[15],0.6086
same,Log2-fold change (9/DMSO),[16],0.4766
same,Log2-fold change (9/DMSO),[17],1.2654
same,Log2-fold change (9/DMSO),[18],0.8119
same,Log2-fold change (9/DMSO),[19],-0.1649
same,Log2-fold change (9/DMSO),[20],1.083
same,Log2-fold change (9/DMSO),[21],0.5741
same,Log2-fold change (9/DMSO),[22],-1.0711
same,Log2-fold change (9/DMSO),[23],1.809
same,Log2-fold change (9/DMSO),[24],-0.276
same,Log2-fold change (9/DMSO),[25],0.133
same,Log2-fold change (9/DMSO),[26],-0.3942
same,Log2-fold change (9/DMSO),[27],-0.0902
same,Log2-fold change (9/DMSO),[28],-0.06179
same,Log2-fold change (9/DMSO),[29],-0.691
same,Log2-fold change (9/DMSO),[30],-0.2878
same,Log2-fold change (9/DMSO),[31],0.5764
same,Log2-fold change (9/DMSO),[32],-1.05
CCCCCc1ccc(SCCP(=O)(OCC)N2CCC[C@H](N)C2=O)cc1.O=C(O)C(F)(F)F (stereo partly shown) [Compound 16],Log2-fold change (16/9),[1],-2.215
same,Log2-fold change (16/9),[2],-2.217
same,Log2-fold change (16/9),[3],0.04221
same,Log2-fold change (16/9),[4],-1.967
same,Log2-fold change (16/9),[5],-2.286
same,Log2-fold change (16/9),[6],0.1493
same,Log2-fold change (16/9),[7],-0.827
same,Log2-fold change (16/9),[8],-1.045
same,Log2-fold change (16/9),[9],0.8558
same,Log2-fold change (16/9),[10],-0.08018
same,Log2-fold change (16/9),[11],-1.311
same,Log2-fold change (16/9),[12],-0.05345
same,Log2-fold change (16/9),[13],0.07056
same,Log2-fold change (16/9),[14],0.07848
same,Log2-fold change (16/9),[15],-0.6819
same,Log2-fold change (16/9),[16],-0.2924
same,Log2-fold change (16/9),[17],-1.0355
same,Log2-fold change (16/9),[18],0.2438
same,Log2-fold change (16/9),[19],0.6272
same,Log2-fold change (16/9),[20],-0.4376
same,Log2-fold change (16/9),[21],-1.553
same,Log2-fold change (16/9),[22],1.379
same,Log2-fold change (16/9),[23],-0.8436
same,Log2-fold change (16/9),[24],0.3401
same,Log2-fold change (16/9),[25],-0.03524
same,Log2-fold change (16/9),[26],0.6165
same,Log2-fold change (16/9),[27],0.05891
same,Log2-fold change (16/9),[28],-0.09553
same,Log2-fold change (16/9),[29],0.1044
same,Log2-fold change (16/9),[30],0.4935
same,Log2-fold change (16/9),[31],-0.3964
same,Log2-fold change (16/9),[32],-1.78
